In patent US9409952B2, “Peptide-compound cyclization method” (Chugai Seiyaku Kabushiki Kaisha, priority 2011, dated 2016):
Starred links: 1 amine or outer side, 2 acyl side, 3 side chain; linkers in the order of their positions; H or OH if unused. Positions of bridges follow the written chain, without caps; N, C: chain ends. Non-standard residues stand in square brackets, D forms with d. Residues, ends and D or L forms follow the SMILES beside them. ξ: configuration not given here. *: point of attachment. Ala(1H-tetrazol-5-yl) = N[C@@H](Cc1nnn[nH]1)C(=O)O; Arg(Me2s) = CN=C(NC)NCCC[C@H](N)C(=O)O; X2 = O=C(C[C@H](N[*:1])C(F)(F)F)[*:2]; Lys(Me2) = CN(C)CCCC[C@H](N)C(=O)O; NMeF = CN[C@@H](Cc1ccccc1)C(=O)O; ξThr(3R) = C[C@@H](O)C(N)C(=O)O; NMeL = CN[C@@H](CC(C)C)C(=O)O; NMeV = CN[C@H](C(=O)O)C(C)C; NMeS = CN[C@@H](CO)C(=O)O; NMeA = CN[C@@H](C)C(=O)O; Piperidide = C1CCN(*)CC1; dNMeA = CN[C@H](C)C(=O)O; β3hA = C[C@H](N)CC(=O)O; Abu = CC[C@H](N)C(=O)O; Sar = CNCC(=O)O

assay: PAMPA (parallel artificial membrane permeability assay); type: in vitro ADME; settings: PAMPA
Method in brief: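 Artificial membrane was 10% (w/v) egg lecithin plus 0.5% (w/v) cholesterol in dodecane on a PVDF filter. A 10 mM DMSO stock was added at 0.5% (v/v) to donor buffer (50 mM MOPSO, pH 6.5, 5.0% glycocholic acid). After 18 h at 37 °C, LC/MS or LC/UV gave donor and acceptor levels for Pe.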

Structure (SMILES) | Papp at 18 h, 50 µM [×10⁻⁶ cm/s]
NS(=O)(=O)c1cc2c(cc1Cl)NCNS2(=O)=O [hydrochlorothiazide, reference compound] | 0.6
COCCc1ccc(OCC(O)CNC(C)C)cc1 (stereo not drawn) [metoprolol, reference compound] | 29

same assay, conditions: PAMPA, pH 6.5

Structure (SMILES) | Papp at 18 hours, 50 µM [×10⁻⁶ cm/s]
CC[C@H](C)[C@@H]1NC(=O)[C@@H]2CCCN2C(=O)[C@H](Cc2ccccc2)NC(=O)[C@H](Cc2ccccc2)NC(=O)[C@H](CC(C)C)NC(=O)[C@H](C(C)C)N(C)C(=O)[C@H](CC(C)C)NC(=O)[C@H](C)NC(=O)[C@H](C)NC(=O)C[C@@H](C(=O)N2CCCCC2)NC(=O)CNC(=O)C([C@@H](C)O)NC1=O (stereo partly drawn) [DP-3] (AAL[NMeV]LFFPI[ξThr(3R)]GD-Piperidide; lactam N-12) | 0.56
CC[C@H](C)[C@@H]1NC(=O)[C@H](CC(C)C)NC(=O)[C@H](CC(C)C)NC(=O)[C@H](C)N(C)C(=O)[C@H](C(C)C)NC(=O)[C@H](C)NC(=O)C[C@@H](C(=O)N2CCCCC2)NC(=O)[C@H](CC(C)C)NC(=O)[C@H]([C@@H](C)O)NC(=O)[C@@H]2CCCN2C(=O)[C@H](CC(C)C)NC(=O)[C@H](Cc2ccccc2)NC1=O [DP-4] (AV[NMeA]LLIFLPTLD-Piperidide; lactam N-12) | 11
CC(C)C[C@@H]1NC(=O)[C@H](CCCCN(C)C)NC(=O)[C@@H]2CCCN2C(=O)[C@H](C)NC(=O)[C@H](CC(C)C)N(C)C(=O)[C@H](Cc2ccccc2)NC(=O)[C@H](CC(C)C)N(C)C(=O)[C@H](CC(C)C)N(C)C(=O)[C@H](Cc2ccccc2)NC(=O)CN(C)C(=O)C[C@@H](C(=O)N(C)[C@@H](Cc2ccccc2)C(=O)N[C@@H](C)C(=O)N2CCCCC2)NC1=O [DP-593] ([Sar]F[NMeL][NMeL]F[NMeL]AP[Lys(Me2)]LD[NMeF]A-Piperidide; lactam N-11) | 1.1
CC(C)C[C@@H]1NC(=O)[C@H](CCC(=O)O)NC(=O)[C@H](Cc2ccccc2)N(C)C(=O)[C@H](CC(C)C)NC(=O)[C@H](CC(C)C)N(C)C(=O)[C@H](Cc2ccccc2)NC(=O)[C@H](CC(C)C)N(C)C(=O)[C@H](CC(C)C)N(C)C(=O)[C@H](Cc2ccccc2)NC(=O)CN(C)C(=O)C[C@@H](C(=O)N(C)[C@@H](Cc2ccccc2)C(=O)N[C@@H](C)C(=O)N2CCCCC2)NC1=O [DP-596] ([Sar]F[NMeL][NMeL]F[NMeL]L[NMeF]ELD[NMeF]A-Piperidide; lactam N-11) | 3.2

same assay, conditions: PAMPA; membrane permeation rate (Pe); 50 mM MOPSO buffer pH 6.5 with 5.0% glycocholic acid, 37° C., 18 hours; read-out: iPAMPA Pe

Structure (SMILES) | Papp at 18 hours, 50 µM [×10⁻⁶ cm/s]
CC(C)C[C@H]1C(=O)N(C)[C@@H](CC(C)C)C(=O)N[C@H](C(=O)N(C)[C@@H](Cc2ccccc2)C(=O)N[C@@H](C)C(=O)N2CCCCC2)CC(=O)N[C@H](C(C)C)C(=O)N(C)[C@@H](C)C(=O)N(C)[C@@H](Cc2ccccc2)C(=O)N(C)[C@@H](CC(C)C)C(=O)N[C@@H](Cc2c[nH]cn2)C(=O)N(C)CC(=O)N[C@@H](C(C)C)C(=O)N1C [DP-585] ([dV][NMeA][NMeF][NMeL]H[Sar]V[NMeL][NMeL]D[NMeF]A-Piperidide; lactam N-10) | 15
CC(C)C[C@@H]1NC(=O)CN(C)C(=O)[C@H](CCCCN(C)C)NC(=O)[C@H](CC(C)C)N(C)C(=O)[C@H](Cc2ccccc2)N(C)C(=O)[C@H](C)N(C)C(=O)[C@@H](C(C)C)NC(=O)C[C@@H](C(=O)N(C)[C@@H](Cc2ccccc2)C(=O)N[C@@H](C)C(=O)N2CCCCC2)NC(=O)[C@H](CC(C)C)N(C)C(=O)[C@H](CC(C)C)N(C)C1=O [DP-587] ([dV][NMeA][NMeF][NMeL][Lys(Me2)][Sar]L[NMeL][NMeL]D[NMeF]A-Piperidide; lactam N-10) | 3.3
CC(C)C[C@@H]1NC(=O)[C@H](CC(C)C)N(C)C(=O)[C@H](CCCCN(C)C)NC(=O)[C@H](CC(C)C)N(C)C(=O)[C@H](Cc2ccccc2)N(C)C(=O)[C@H](CC(C)C)N(C)C(=O)[C@@H](C(C)C)NC(=O)C[C@@H](C(=O)N(C)[C@@H](Cc2ccccc2)C(=O)N[C@@H](C)C(=O)N2CCCCC2)NC(=O)[C@H](CC(C)C)N(C)C(=O)[C@H](CC(C)C)N(C)C1=O [DP-588] ([dV][NMeL][NMeF][NMeL][Lys(Me2)][NMeL]L[NMeL][NMeL]D[NMeF]A-Piperidide; lactam N-10) | 0.6
C/N=C(\NC)NCCC[C@@H]1NC(=O)[C@H](CC(C)C)N(C)C(=O)[C@H](Cc2ccccc2)N(C)C(=O)[C@H](C)N(C)C(=O)[C@@H](C(C)C)NC(=O)C[C@@H](C(=O)N(C)[C@@H](Cc2ccccc2)C(=O)N[C@@H](C)C(=O)N2CCCCC2)NC(=O)[C@H](CC(C)C)N(C)C(=O)[C@H](CC(C)C)N(C)C(=O)[C@H](C(C)C)NC(=O)CN(C)C1=O [DP-590] ([dV][NMeA][NMeF][NMeL][Arg(Me2s)][Sar]V[NMeL][NMeL]D[NMeF]A-Piperidide; lactam N-10) | 1.4
CC(C)C[C@@H]1NC(=O)[C@H](CCCCN(C)C)NC(=O)[C@H](Cc2ccccc2)N(C)C(=O)[C@H](CC(C)C)NC(=O)[C@H](CC(C)C)N(C)C(=O)[C@H](Cc2ccccc2)NC(=O)[C@H](CC(C)C)N(C)C(=O)[C@H](CC(C)C)N(C)C(=O)[C@H](Cc2ccccc2)NC(=O)CN(C)C(=O)C[C@@H](C(=O)N(C)[C@@H](Cc2ccccc2)C(=O)N[C@@H](C)C(=O)N2CCCCC2)NC1=O [DP-594] ([Sar]F[NMeL][NMeL]F[NMeL]L[NMeF][Lys(Me2)]LD[NMeF]A-Piperidide; lactam N-11) | 1.3
CC(C)C[C@@H]1NC(=O)[C@H](CC(C)C)N(C)C(=O)[C@H](C(C)C)NC(=O)C[C@H](C)NC(=O)CN(C)C(=O)[C@H](CC(C)C)NC(=O)[C@H](CO)N(C)C(=O)[C@H](CC(C)C)N(C)C(=O)[C@H](CC(C)C)N(C)C(=O)[C@H](CC(C)C)N(C)C(=O)[C@@H](CC(C)C)NC1=O [DP-640] (cyclo(L[Sar][β3hA]V[NMeL]L[dL][NMeL][NMeL][NMeL][NMeS])) | 50
CC(C)C[C@H]1C(=O)N[C@@H](C(C)C)C(=O)N(C)[C@@H](CC(C)C)C(=O)N[C@@H](C)C(=O)N[C@H](C)C(=O)N(C)[C@@H](CC(C)C)C(=O)N(C)[C@@H](CC(C)C)C(=O)N(C)[C@@H](CC(C)C)C(=O)N(C)[C@@H](CO)C(=O)N[C@H](C(F)(F)F)CC(=O)N(C)CC(=O)N1C [DP-654] (cyclo(A[dA][NMeL][NMeL][NMeL][NMeS][X2][Sar][NMeL]V[NMeL])) | 23
CC[C@@H]1NC(=O)[C@H](CO)N(C)C(=O)[C@H](CC(C)C)N(C)C(=O)[C@H](CC(C)C)N(C)C(=O)[C@H](CC(C)C)N(C)C(=O)[C@@H](C)NC(=O)[C@H](CC(C)C)NC(=O)C[C@@H](C(F)(F)F)NC(=O)[C@H](C(C)C)NC(=O)[C@H](CC(C)C)N(C)C(=O)CN(C)C1=O [DP-656] (cyclo([Abu][Sar][NMeL]V[X2]L[dA][NMeL][NMeL][NMeL][NMeS])) | 30
CC[C@H](C)[C@@H]1NC(=O)[C@H](CC(C)C)N(C)C(=O)CN(C)C(=O)[C@H]([C@@H](C)O)NC(=O)[C@H](C)N(C)C(=O)C[C@@H](C(=O)N(C)[C@@H](CC(C)C)C(=O)N[C@@H](C)C(=O)N2CCCCC2)NC(=O)[C@H](CC(C)C)N(C)C(=O)[C@H](Cc2ccccc2)N(C)C(=O)[C@H](CC(C)C)N(C)C1=O [DP-663] ([NMeA]T[Sar][NMeL]I[NMeL][NMeF][NMeL]D[NMeL]A-Piperidide; lactam N-9) | 43
CC(C)C[C@@H]1NC(=O)[C@H](Cc2ccccc2)N(C)C(=O)[C@H](Cc2ccccc2)N(C)C(=O)[C@H](C(C)C)NC(=O)[C@H](CC(C)C)N(C)C(=O)[C@H](Cc2nn[nH]n2)NC(=O)[C@H](CC(C)C)N(C)C(=O)C[C@@H](C(=O)N2CCCCC2)NC(=O)[C@H](CC(C)C)N(C)C1=O [DP-907] ([NMeL][Ala(1H-tetrazol-5-yl)][NMeL]V[NMeF][NMeF]L[NMeL]D-Piperidide; lactam N-9) | 21
CC[C@H](C)[C@H](NC(=O)[C@H](CC(C)C)NC(=O)[C@H](Cc1ccccc1)NC(=O)[C@@H]1CCCN1C(=O)[C@H](CC(C)C)NC(=O)[C@@H]1CC(=O)N[C@@H](Cc2ccccc2)C(=O)N(C)[C@@H](Cc2ccccc2)C(=O)N(C)[C@@H](CC(C)C)C(=O)N[C@@H]([C@@H](C)O)C(=O)N(C)[C@@H](C)C(=O)N(C)[C@@H](CC(C)C)C(=O)N1)C(=O)N1CCCCC1 [DP-910] (F[NMeF][NMeL]T[NMeA][NMeL]DLPFLI-Piperidide; lactam N-7) | 0.16
CC[C@H](C)[C@@H]1NC(=O)[C@H](CC(C)C)N(C)C(=O)[C@H](C)N(C)C(=O)[C@H](Cc2ccccc2)N(C)C(=O)[C@@H](C)N(C)C(=O)C[C@@H](C(=O)N2CCCCC2)NC(=O)[C@H](CC(C)C)N(C)C(=O)[C@H]([C@@H](C)O)NC(=O)[C@H](CO)NC(=O)[C@H](CC(C)C)NC(=O)[C@H](C)N(C)C(=O)[C@H](CC(C)C)N(C)C(=O)[C@H](Cc2ccccc2)NC(=O)[C@H](CC(C)C)N(C)C1=O [DP-959] ([dNMeA][NMeF][NMeA][NMeL]I[NMeL]F[NMeL][NMeA]LST[NMeL]D-Piperidide; lactam N-14) | 2.9

same assay, conditions: membrane permeation rate (Pe); 50 mM MOPSO buffer pH 6.5 with 5.0% glycocholic acid, 37° C., 18 hours

Structure (SMILES) | iPAMPA Pe
C/N=C(\NC)NCCC[C@@H]1NC(=O)[C@H](Cc2ccccc2)N(C)C(=O)[C@H](CC(C)C)NC(=O)[C@H](CC(C)C)N(C)C(=O)[C@H](Cc2ccccc2)NC(=O)[C@H](CC(C)C)N(C)C(=O)[C@H](CC(C)C)N(C)C(=O)[C@H](Cc2ccccc2)NC(=O)CN(C)C(=O)C[C@@H](C(=O)N(C)[C@@H](Cc2ccccc2)C(=O)N[C@@H](C)C(=O)N2CCCCC2)NC(=O)[C@H](CC(C)C)NC1=O [DP-598] ([Sar]F[NMeL][NMeL]F[NMeL]L[NMeF][Arg(Me2s)]LD[NMeF]A-Piperidide; lactam N-11) | 1.0E−07

assay: Metabolic stability in human hepatic microsome; type: in vitro ADME; settings: human, microsomes, pH 7.4, CL NADPH(+)

Structure (SMILES) | microsomal CLint at 1 uM [µL/min/mg]
CC[C@H](C)[C@@H]1NC(=O)[C@@H]2CCCN2C(=O)[C@H](Cc2ccccc2)NC(=O)[C@H](Cc2ccccc2)NC(=O)[C@H](CC(C)C)NC(=O)[C@H](C(C)C)N(C)C(=O)[C@H](CC(C)C)NC(=O)[C@H](C)NC(=O)[C@H](C)NC(=O)C[C@@H](C(=O)N2CCCCC2)NC(=O)CNC(=O)C([C@@H](C)O)NC1=O (stereo partly drawn) [DP-3] (AAL[NMeV]LFFPI[ξThr(3R)]GD-Piperidide; lactam N-12) | 45
CC[C@H](C)[C@@H]1NC(=O)[C@H](CC(C)C)NC(=O)[C@H](CC(C)C)NC(=O)[C@H](C)N(C)C(=O)[C@H](C(C)C)NC(=O)[C@H](C)NC(=O)C[C@@H](C(=O)N2CCCCC2)NC(=O)[C@H](CC(C)C)NC(=O)[C@H]([C@@H](C)O)NC(=O)[C@@H]2CCCN2C(=O)[C@H](CC(C)C)NC(=O)[C@H](Cc2ccccc2)NC1=O [DP-4] (AV[NMeA]LLIFLPTLD-Piperidide; lactam N-12) | 42
